According to patent publication US6124078A, “Photo-decoloring dye, a binder resin composition containing the same and photo-recording material” (Konica Corporation, priority 1998, dated 2000):

What was measured:
Format in all cases: physicochemical
[1] = Absorption maximum and absorption coefficient in ethyl acetate
[2] = Storage stability of photo-recording material (60° C., 200 hours, light-shielded); settings: (density after storage/initial density)×100, packed with black paper
Excerpt: The binder resin composition containing the photo-decoloring dye used for making sample 3-1 was coated on a polyethylenenaphthalate base having thickness of 4.0 μm by using a wire bar in a coating amount of 2.5 g/m^2 after drying so as to obtain a photo-recording material consisting of a photo-decoloring layer on the polyethylenenaphthalate film. On a back side of said polyethylenenaphthalate base was coated a nitrocellulose layer containing a silicone modified urethane resin (SP-2105, produced by Dainichiseika Co., Ltd.) as a sticking-preventing layer. Thus obtained sample is termed sample 4-1.
By replacing the photo-decoloring dye 7 used in sample 4-1 by such photo-decoloring dyes as described later, sample 4-2 to 4-16 were obtained. Both photo-decoloring ability and storage stability of these dyes were evaluated.
Photo-shielded samples by packing them with black paper were allowed to stand at 60° C. in a thermostatic oven for 200 hours. Storage stability was indicated as follows.
Storage stability=(density after storage/initial density)×100 (%)

[3] = Solubility of dye in binder resin composition (polyvinyl butyral / methyl ethyl ketone), precipitation after a day at 15° C.; settings: binder resin composition: polyvinyl butyral resin (Esrex BX-1) 100 mg, methyl ethyl ketone 3.0 ml; stood a day at 15° C. shielded from light
Experimental: Mixing the following raw materials, a binder resin composition containing the photo-decoloring dye was prepared so as to obtain sample 3-1.
Photo-decoloring dye 7 0.3 mmol
Polyvinyl butyral resin (Esrex BX-1)
Methyl ethyl ketone 3.0 ml
Samples 3-2 to 3-12 were obtained in the same way in which sample 3-1 was obtained except replacing the photo-decoloring dye 7 by the following dyes described later. Solubility was evaluated by varying addition amount of each dye. The dyes except for comparative dyes show the photo-decoloring dyes according to the invention. The chemical structures of the comparative dyes A and B (these dyes are used in example 5) are shown below.
After preparing binder resin compositions in which addition amount of the photo-decoloring dyes was increased in serial turn, said binder resin compositions were aloowed to stand under the condition of shielding a light for a day at 15° C. When slight precipitation of the photo-decoloring dyes in said binder resin compositions was observed, the solubility of said photo-decoloring dyes was evaluated as unacceptable.
The solubility of the photo-decoloring dyes was evaluated based on the following criteria in response to the addition amount of said photo-decoloring dyes.
4: Precipitation was not observed in an addition amount of not less than 0.9 mmol.

| SMILES | εmax [1] | λmax [1] [nm] | Storage stability [2] [%] | Solubility [3] |
| --- | --- | --- | --- | --- |
| CCCCCCCCCCCCS(=O)(=O)CCCc1nnc2c(=Cc3cc(Cl)c(O)c(Cl)c3)c(C(C)(C)C)nn12 [compound 78] | 94800 | 543 | – | – |
| CCN(CC)c1ccc(N=C2C(=O)N(c3ccccc3)N=C2C)cc1 [D] | – | – | 80 | – |
| CN1/C(=C\C=C\C2=[N+](C)c3ccccc3C2(C)C)C(C)(C)c2ccccc21 [F] | – | – | 15 | – |
| CCCCc1nnc2n1N=C(C(C)(C)C)C2=Nc1ccc(O)cc1 [A] | – | – | 18 | 2 (Slight precipitation was observed in an addition amount of not less than 0.3 to less than 0.6 mmol.) |
| CCCCCCCCCCCCS(=O)(=O)CCCc1nnc2c(=Cc3cc(Cl)c(O)c(Cl)c3)c(C(C)(C)C)nn12 [compound 58] | 105300 | 540 | 80 | 4 (Precipitation was not observed in an addition amount of not less than 0.9 mmol.) |
| CCC(Oc1ccc(C(C)(C)CC)cc1C(C)(C)CC)C(=O)NCCC(C)c1nnc2n1N=C(C(C)(C)C)C2=Nc1cc(Cl)c(O)c(Cl)c1 (stereo not drawn) [compound 11] | – | – | 80 | 4 (Precipitation was not observed in an addition amount of not less than 0.9 mmol.) |
| CCCCCCCCCCCCOc1ccc(S(=O)(=O)NCC(C)(C)c2nnc3n2N=C(C(C)(C)C)C3=Nc2cc(Cl)c(O)c(Cl)c2)cc1 [compound 13] | – | – | 75 | 3 (Slight precipitation was observed in an addition amount of not less than 0.6 to less than 0.9 mmol.) |
| CCCCc1nnc2c(=Cc3cc(Cl)c(O)c(Cl)c3)c(C(C)(C)C)nn12 [B] | – | – | 20 | 2 (Slight precipitation was observed in an addition amount of not less than 0.3 to less than 0.6 mmol.) |
| CCCCC(Oc1ccc(C(C)(C)CC)cc1C(C)(C)CC)C(=O)Nc1ccc2nc3n(c2c1)N=C(C)C3=Nc1cc(Cl)c(O)c(Cl)c1 (stereo not drawn) [compound 32] | – | – | 90 | 3 (Slight precipitation was observed in an addition amount of not less than 0.6 to less than 0.9 mmol.) |
| CCCCCCCCCCCCS(=O)(=O)NCCc1nc2c(=Cc3cc(Cl)c(O)c(Cl)c3)c(C(C)(C)C)nn2n1 [compound 47] | – | – | 82 | 4 (Precipitation was not observed in an addition amount of not less than 0.9 mmol.) |
| CCN(CC)c1ccc(N=C2C=CC(=O)c3ccccc32)cc1 [E] | – | – | 85 | – |
| CCC(C)(C)c1ccc(OCC(=O)Nc2ccnc(-c3cnc4n3N=C(C(C)(C)C)C4=Nc3cc(Cl)c(O)c(Cl)c3)c2)c(C(C)(C)CC)c1 [compound 33] | – | – | 77 | 4 (Precipitation was not observed in an addition amount of not less than 0.9 mmol.) |
| CCN(CC)c1ccc(N=C(C(C)=O)C(=O)Nc2ccccc2)c(C)c1 [C] | – | – | 95 | – |
| CCCCCCCCCCCCC(Oc1ccc(OC(C)=O)c(C(C)(C)C)c1)C(=O)NCCc1nnc2n1N=C(C)C2=Nc1cc(Cl)c(O)c(Cl)c1 (stereo not drawn) [compound 17] | – | – | 85 | 4 (Precipitation was not observed in an addition amount of not less than 0.9 mmol.) |
| CCCCCCCCCCCCS(=O)(=O)CCCc1nnc2n1N=C(C(C)(C)C)C2=Nc1cc(Cl)c(O)c(Cl)c1 [compound 7] | 93700 | 556 | 88 | 4 (Precipitation was not observed in an addition amount of not less than 0.9 mmol.) |
